Laboratory results: ChEMBL document CHEMBL3804815, “Aloperine and Its Derivatives as a New Class of HIV-1 Entry Inhibitors” (ACS Med Chem Lett, 2016)
Activity calls are given as the source filed them. The calls are words filed in the database; no cut-off is given here.

Legend:
[1] = Cytotoxicity against human MT4 cells assessed as reduction in cell viability after 3 days by CellTiter-Glo luminescent assay; format: cell-based
[2] = test system: Human immunodeficiency virus 1; test: Antiviral activity against HIV1 NL4-3 infected in human MT4 cells assessed as reduction in viral replication measured on day 3 post infection by Nano-Glo luciferase reporter gene assay; format: functional, organism-based; conditions: Human immunodeficiency virus 1, NL4-3, MT4, 72 h
[3] = test system: Human immunodeficiency virus 1; test: Effect on binding of HIV1 3B gp120 to CD4-IgG2 at 1 to 10 ug/ml by ELISA
[4] = test system: Human immunodeficiency virus 1; test: Antiviral activity against pseudotype HIV1 25710 harboring HIV1 subtype C Env assessed as inhibition of viral infection in human TZM-bl cells measured 2 days post infection by luciferase reporter gene assay; format: functional, organism-based; conditions: Human immunodeficiency virus 1, 25710, TZM-bl, 48 h
[5] = test system: Human immunodeficiency virus 1; test: Antiviral activity against pseudotype HIV1 TRO11 harboring HIV1 subtype B Env assessed as inhibition of viral infection in human TZM-bl cells measured 2 days post infection by luciferase reporter gene assay; format: functional, organism-based; conditions: Human immunodeficiency virus 1, TRO11, TZM-bl, 48 h
[6] = Cytotoxicity against human TZM-bl cells at 20 uM; format: cell-based
[7] = test system: Human immunodeficiency virus 1; test: Antiviral activity against pseudotype HIV1 CE0217 harboring HIV1 subtype C Env assessed as inhibition of viral infection in human TZM-bl cells measured 2 days post infection by luciferase reporter gene assay; format: functional, organism-based; conditions: Human immunodeficiency virus 1, CE0217, TZM-bl, 48 h
[8] = test system: Human immunodeficiency virus 1; test: Antiviral activity against pseudotype HIV1 X1632 harboring HIV1 subtype G Env assessed as inhibition of viral infection in human TZM-bl cells measured 2 days post infection by luciferase reporter gene assay; format: functional, organism-based; conditions: Human immunodeficiency virus 1, X1632, TZM-bl, 48 h
[9] = test system: Human immunodeficiency virus 1; test: Antiviral activity against pseudotype HIV1 CH119 harboring HIV1 subtype CRF07_BC Env assessed as inhibition of viral infection in human TZM-bl cells measured 2 days post infection by luciferase reporter gene assay; format: functional, organism-based; conditions: Human immunodeficiency virus 1, CH119, TZM-bl, 48 h
COS [10] = test: Inhibition of HIV1 NL4-3 Env-induced cell-cell fusion between viral envelope expressing African green monkey COS cells to CXCR4 receptor expressing human TZM-bl cells at 0.01 to 10 uM after overnight incubation by Bright-Glo luciferase assay; format: cell-based; conditions: Human immunodeficiency virus 1
[11] = test system: Human immunodeficiency virus 1; test: Antiviral activity against pseudotype HIV1 CNE55 harboring HIV1 subtype CRF01_AE Env assessed as inhibition of viral infection in human TZM-bl cells measured 2 days post infection by luciferase reporter gene assay; format: functional, organism-based; conditions: Human immunodeficiency virus 1, CNE55, TZM-bl, 48 h
[12] = test system: Human immunodeficiency virus 1; test: Antiviral activity against pseudotype HIV1 CE1176 harboring HIV1 subtype C Env assessed as inhibition of viral infection in human TZM-bl cells measured 2 days post infection by luciferase reporter gene assay; format: functional, organism-based; conditions: Human immunodeficiency virus 1, CE1176, TZM-bl, 48 h
[13] = test system: Human immunodeficiency virus 1; test: Antiviral activity against pseudotype HIV1 BJOX2000 harboring HIV1 subtype CRF07_BC Env assessed as inhibition of viral infection in human TZM-bl cells measured 2 days post infection by luciferase reporter gene assay; format: functional, organism-based; conditions: Human immunodeficiency virus 1, BJOX2000, TZM-bl, 48 h
[14] = Inhibition of HIV1 YU2 gp120-induced cell-cell fusion between viral envelope expressing African green monkey COS cells to CCR5 receptor expressing human TZM-bl cells after overnight incubation by Bright-Glo luciferase assay; format: cell-based, Human immunodeficiency virus type 1 (isolate YU2); conditions: Human immunodeficiency virus 1, COS
COS [15] = test: Inhibition of HIV1 8X gp120-induced cell-cell fusion between viral envelope expressing African green monkey COS cells and human TZM-bl cells up to 5 uM after overnight incubation by Bright-Glo luciferase assay; format: cell-based; conditions: Human immunodeficiency virus 1
COS [16] = test: Inhibition of BMS-806 resistant HIV1 YU2 gp120 T198P mutant-induced cell-cell fusion between viral envelope expressing African green monkey COS cells to CCR5 receptor expressing human TZM-bl cells at 5 uM after overnight incubation by Bright-Glo luciferase assay; format: cell-based; conditions: Human immunodeficiency virus type 1 (isolate YU2)
COS [17] = test: Inhibition of HIV1 YU2 gp120-induced cell-cell fusion between viral envelope expressing African green monkey COS cells to CCR5 receptor expressing human TZM-bl cells at 0.01 to 10 uM after overnight incubation by Bright-Glo luciferase assay; format: cell-based; conditions: Human immunodeficiency virus type 1 (isolate YU2)

SMILES | CC50 at 72 h [1] [µM] | EC50 [2] [µM] | other results
O=C(/C=C/c1ccc2c(c1)OCO2)NCCN1CCCC2=C[C@H]3C[C@H](CN4CCCC[C@H]34)[C@@H]21 | > 44.5 | > 10 | –
O=C(Cc1ccc(OC(F)(F)F)cc1)NCCCCN1CCCC2=C[C@H]3C[C@H](CN4CCCC[C@H]34)[C@@H]21 | 23 | 0.75 | Activity [3]: inactive; EC50 [4]: 2100 nM; EC50 [5]: 1600 nM; Activity [6]: Non-toxic; EC50 [7]: 1400 nM; EC50 [8]: 2500 nM; EC50 [9]: 900 nM; inhibition (COS [10]): Active; EC50 [11]: 4.3 µM; EC50 [12]: 2200 nM; EC50 [13]: 2800 nM
FC(F)(F)Oc1ccc(CNCCCCN2CCCC3=C[C@H]4C[C@H](CN5CCCC[C@H]45)[C@@H]32)cc1 | 6.2 | 4.2 | –
NCCCCN1CCCC2=C[C@H]3C[C@H](CN4CCCC[C@H]34)[C@@H]21 | > 69.2 | 8 | –
C1=C2CCCN(CCCCNCc3ccccc3)[C@H]2[C@@H]2C[C@H]1[C@H]1CCCCN1C2 | 28.6 | 0.96 | –
COc1ccnc2[nH]cc(C(=O)C(=O)N3CCN(C(=O)c4ccccc4)C[C@H]3C)c12 | – | – | EC50 [14]: 100 nM; inhibition (COS [15]): inactive; inhibition (COS [16]): inactive
C=C(C)[C@@H]1CC[C@]2(C(=O)NCCCCCCCNC(C)=O)CC[C@]3(C)[C@H](CC[C@@H]4[C@@]5(C)CC[C@H](O)C(C)(C)[C@@H]5CC[C@]43C)[C@@H]12 | > 32.8 | 0.025 | inhibition (COS [17]): Active; inhibition (COS [10]): Active
O=C(Cc1ccc(OC(F)(F)F)cc1)NCCCCCN1CCCC2=C[C@H]3C[C@H](CN4CCCC[C@H]34)[C@@H]21 | 17.5 | 4.21 | –
CN1CCCC2C[C@H]3C[C@H](CN4CCCC[C@H]34)[C@@H]21 (some centres not stated) | > 80.6 | > 10 | –
O=C(/C=C/c1ccc2c(c1)OCO2)NCCCCN1CCCC2=C[C@H]3C[C@H](CN4CCCC[C@H]34)[C@@H]21 | > 41.9 | 3.17 | –
O=C(Cc1ccc(OC(F)(F)F)cc1)NCCCN1CCCC2=C[C@H]3C[C@H](CN4CCCC[C@H]34)[C@@H]21 | > 40.7 | 7.68 | –
O=C(NCCCCCN1CCCC2=C[C@H]3C[C@H](CN4CCCC[C@H]34)[C@@H]21)c1ccc(OC(F)(F)F)cc1F | > 38.2 | 6.21 | –
O=C(NCCCCN1CCCC2=C[C@H]3C[C@H](CN4CCCC[C@H]34)[C@@H]21)c1ccc(C(F)(F)F)cc1 | > 42.1 | 0.69 | –
NCCCCCCN1CCCC2=C[C@H]3C[C@H](CN4CCCC[C@H]34)[C@@H]21 | > 60.4 | > 10 | –
O=C(NCCN1CCCC2=C[C@H]3C[C@H](CN4CCCC[C@H]34)[C@@H]21)c1ccc(OC(F)(F)F)cc1 | > 43.2 | > 10 | –
C1CN[C@@H]2C(C1)C[C@H]1C[C@@H]2CN2CCCC[C@H]12 (some centres not stated) | > 85.5 | > 10 | –
COc1ccc(C(=O)NCCCCN2CCCC3=C[C@H]4C[C@H](CN5CCCC[C@H]45)[C@@H]32)cc1 | > 45.8 | 8.13 | –
O=C(Cc1ccc(OC(F)(F)F)cc1)NCCN1CCCC2=C[C@H]3C[C@H](CN4CCCC[C@H]34)[C@@H]21 | > 41.9 | > 10 | –
O=C(NCCCCN1CCCC2=C[C@H]3C[C@H](CN4CCCC[C@H]34)[C@@H]21)c1cccc(OC(F)(F)F)c1 | > 40.7 | 3.89 | –
